Laboratory results published in patent US20210163552A1, “PEPTIDE FOR INDUCING REGENERATION OF TISSUE, AND USE THEREOF” (SHIONOGI & CO., LTD., priority 2017, published 2021).
Where no end group is shown, it is not given here.

What was measured:
[1] = Stability of peptides in plasma (Example 6); format: in vitro ADME; details: rat plasma on ice, assay concentration 5 μg/mL; for stability in rat plasma compared to 2-44 / stability in rat plasma, Peptide-3 and Peptide-6 compared with each other: 30 and 60 minutes (FIG. 3)
Description: A 5 mL tube previously charged with 60 μL of a 10% EDTA-2K was charged with 3 mL of whole blood collected from Crl: CD (SD) rats, and the contents were allowed to stand at room temperature for 30 minutes, and then centrifuged at 4° C. and at 3,000 rpm (1600×g) for 10 minutes. The supernatant was collected to be used as a blank plasma. The plasma obtained was stored on ice and only used on the day of the stability test.
Each of the peptide at position 2 to position 44 of human HMGB1 (2-44), the modified peptide prepared in Example 1 (Peptide-3), and the modified peptide prepared in Example 4 (Peptide-6) was prepared into a solution at 375 μg/mL with distilled water from a stock solution in which each peptide was dissolved in a 0.1% aqueous TFA solution at 1 mg/mL. Eight microliters of the solution was added to 592 μL of the blank plasma to prepare a sample for the stability test (assay concentration: 5 μg/mL). The sample for stability test was allowed to stand on ice, and 50 μL was collected immediately after the addition, and 30 and 60 minutes after the addition. To 50 μL of the collected sample were added 250 μL of 270 mmol/L citric acid solution/130 mmol/L EDTA-2K aqueous solution (4:1, v/v), and 50 μL of a 0.1% aqueous TFA solution, and mixed. To the mixture was added 350 μL of methanol and mixed, and further 100 μL of acetonitrile was added thereto and mixed, and the mixture was once frozen with dry ice. After 5 to 60 minutes, the frozen sample was thawed at room temperature, and the supernatant obtained by centrifugation at 4° C. and at 14,000×g for 3 minutes was collected in an amount of 400 μL, dried and solidified with a centrifugal concentrator (Spin Dryer Light VC-36R, manufactured by TAITEC CORPORATION), and dissolved in 200 μL of a 1% TFA/2% ACN Buffer, and filtrated with a filter (0.22 μm) to obtain samples for the measurement.
The samples for the measurement were introduced into high-performance liquid chromatograph-single quadrupolar mass spectrometer to detect the monitor ions peculiar to each of the peptides. From separately prepared samples of which concentrations were known, a calibration curve was drawn in a concentration range of from 0.1 to 10 μg/mL, and an inverse regression was obtained from peak areas of chromatograms obtained by measurements of each sample to obtain a peptide concentration in the samples. For the peptide concentration at each time point, a remaining rate (%) which was calculated by defining one immediately after the addition as 100 was plotted against the time after the addition (FIG. 3).

[2] = system: murine bone marrow-derived stromal cell line ST2; experiment: Measurements of cell-migration activity (Example 2); format: cell-based; design: key: five levels of scores (−, ±, +, ++, +++); five levels of scores (−, ±, +, ++, +++); five levels of scores (−, ±, +, ++, +++); five levels of scores (−, ±, +, ++, +++); five levels of scores (−, ±, +, ++, +++); details: ST2 cells, peptide at 10 μM, cultured overnight, score from photographed images
Description: Cells of murine bone marrow-derived stromal cell line ST2 (RCB0224, RIKEN BioResource Research Center) were removed from a dish using TrypLE Express (Thermo Fisher Scientific), and collected by centrifugation at 25° C. and 1,500 rpm for 5 minutes. The cell pellets were prepared into a concentration of 7×10^5 cells/mL with RPMI 1640/10% FBS/1% PenStrep (Gibco), and seeded at 70 μL/insert well on a 24-well plate set with a culture insert (Nippon Genetics Co., Ltd.). After 24 hours, the culture insert was taken out, and the cells were washed once with RPMI 1640. Each of the peptide samples (a peptide of position 2 to position 44 of human HMGB1 (2-44), and the five kinds of modified peptides Peptide-1 to -5 prepared in Example 1), each prepared at 10 μM with an assay medium (RPMI 1640/0.1% FBS) was added in an amount of 550 μL, and the cells were further cultured overnight. As a negative control (NC), only the assay medium was added. After the culture, the cells were fixed, stained with DiffQuik, and photographed. The degree of cell migration of each group from the photographed images was evaluated with five levels of scores (−, ±, +, ++, +++). In addition, each of the peptide samples was subjected to three test runs under the same conditions.

| peptide concentration in the stability test sample (quantifiable lower limit) ([1]; 30 minutes after the addition) [µg/mL] | stability in rat plasma compared to 2-44 [1] | stability in rat plasma, Peptide-3 and Peptide-6 compared with each other [1] | Sequence | degree of cell migration, 1st Run [2] | degree of cell migration, 2nd Run [2] | degree of cell migration, 3rd Run [2] |
| --- | --- | --- | --- | --- | --- | --- |
| ≤ 0.5 |  |  | GKGDPKKPRGKMSSYAFFVQTCREEHKKKHPDASVNFSEFSKK [Peptide 2-44, GKGDPKKPR GKMSSYAFFVQTCREEHKKKHPDASVNFSEFSKK, reference compound] |  |  |  |
|  | stable as compared to 2-44 | of the same level | GKGDPKKPRGKMSSYAFFVQTCREEHKKKHPDASVNFSEFSPP [Peptide-6, GKGDPKKPR GKMSSYAFFVQTCREEHKKKHPDASVNFSEFSPP] |  |  |  |
|  |  |  | MGKGDPKKPRGKMSSYAFFVQTCREEHKKKHPDASVNFSEFSKA (MGKGDPKKPRGKMSSYAFFVQTCREEHKKKHPDASVNFSEFSKA) [Peptide-4] | ++ | + | +++ |
|  |  |  | MGKGDPKKPRGKMSSYAFFVQTCREEHKKKHPDASVNFSEFSKE (MGKGDPKKPRGKMSSYAFFVQTCREEHKKKHPDASVNFSEFSKE) [Peptide-5] | ++ | ++ | ++ |
|  |  |  | MGKGDPKKPRGKMSSYAFFVQTCREEHKKKHPDASVNFSEFSKP (MGKGDPKKPRGKMSSYAFFVQTCREEHKKKHPDASVNFSEFSKP) [Peptide-1] | +++ | + | +++ |
|  |  |  | MGKGDPKKPRGKMSSYAFFVQTCREEHKKKHPDASVNFSEFSPK (MGKGDPKKPRGKMSSYAFFVQTCREEHKKKHPDASVNFSEFSPK) [Peptide-2] | +++ | ++ | +++ |
|  | stable as compared to 2-44 | of the same level | MGKGDPKKPRGKMSSYAFFVQTCREEHKKKHPDASVNFSEFSPP [Peptide-3, MGKGDPKKPRGKMSSYAFFVQTCREEHKKKHPDASVNFSEFSPP] |  |  |  |
